Where a SMILES comes first, the peptide text is derived from it. [ ]: non-standard residue; d: D form. Nle = CCCC[C@H](N)C(=O)O; d = 2'-deoxy (DNA); r = 2'-OH (RNA); {P} = phosphate
Columns and labels:
Format in all cases: cell-based
[1] = test system: HPRT mRNA; assay: Pretreatment of well differentiated pig airway epithelia before HPRT siRNA transfection, qPCR; settings: for reduction in HPRT mRNA levels: 6 h drug pretreatment at Cmap or literature concentration, then siRNA-Transductin 24 h (data not shown); for silencing of HPRT mRNA after pretreatment: well differentiated PAE, KGF 50 ng/ml 24 h, EGTA 6 mM 30 m, LLnL 40 μM 24 hrs, then 250 nM HPRT siRNA with RNAiMAX or Transductin
Experimental: (§1) For airway epithelia that were either well or poorly differentiated, transfection was done mostly according to the manufacturer's protocol. In all cases, the apical surface of epithelia was washed twice with PBS before adding the transfection mixture to the apical surface. The mixture was then left on the cells for 24 h for all transfection reagents. For PK1 cells, reverse transfection was performed in a 48-well plate by first adding the siRNA-RNAiMAX reagent mixture onto the plate and then adding the dispersed cells (40,000 cells) on top of the mixture and allowing the cells to adhere and establish growth for 24 h. Before some transfections, pretreatment of cells with various chemicals were performed: Keratinocyte Growth Factor (KGF; Prospec, East Brunswick, N.J.) 50 ng/ml added both apically and basolaterally for 24 h; EGTA 6 mM added apically for 30 m; N-Acetyl-L-Leucyl-L-Leucyl-L-Norleucinal (LLnL; ICN Biochemicals, Inc, Costa Mesa, Calif.) 40 μM added both apically and basolaterally for 24 hrs; human Epidermal Growth Factor (EGF; Sigma-Aldrich, St. Louis, Mo.) 100 μg/ml, added apically for 15 m.
(§2) Total RNA was isolated using SV96 RNA isolation kit (Promega), according to manufacturer's protocol. Two hundred fifty ng of total RNA were reverse transcribed using oligo (dT) (Roche, Indianapolis, Ind.) and random hexamers (Invitrogen, Grand Island, N.Y.) and Superscript II (Invitrogen, Grand Island, N.Y.) according to manufacturer's instructions. One-fifteenth of the cDNA was then amplified and analyzed by Taqman assay in the 7900 Real Time PCR System (Applied Biosystems) using synthesized primer-probe pairs (IDT, Coralville, Iowa), reaction buffer and Immolase DNA polymerase (Bioline, Taunton, Mass.). The reaction mix was contained in a total volume of 10 μl and the reaction condition was an initial cycle of 95° C. for 10 min, then 40 cycles of 95° C. for 15 s and 60° C. for 1 min. All data were normalized to the internal standard, RPL4 mRNA for pig airway samples and SFRS9 mRNA for human airway samples. Absolute quantification of an mRNA target sequence within an unknown sample was determined by reference to a standard curve. The standard curve was based on the real-time PCR amplification of standard amounts of the specific gene in a control NC1 cDNA.
(§3) Wortmannin was purchased from Sigma (St. Louis, Mo.) as a ready to use solution. […] Monensin was purchased from Sigma (St. Louis, Mo.) and was dissolved in water. For experiments with drugs, the cells were pre-treated with drugs for 6 h usually at a concentration that was used in the Cmap study (Lamb J et al., The connectivity map: Using gene-expression signatures to connect small molecules, genes, and disease. Science 2006; 313(5795):1929-1935) or in other published studies. After the drug treatment, the cells were transfected with siRNA as described before.

[2] = test system: HPRT mRNA; assay: Pretreatment of well-differentiated human airway epithelia before HPRT siRNA transfection, qPCR; settings: for reduction in HPRT mRNA levels: 6 h drug pretreatment at Cmap or literature concentration, then siRNA-Transductin 24 h (data not shown); for decrease in HPRT mRNA levels: vs nontargeting controls (FIG. 5c)
Experimental: as §1, §2, §3

[3] = test system: IL-8; assay: IL-8 siRNA transfection of poorly differentiated pig airway epithelia (2 and 5 days old), qPCR; settings: for silencing of IL-8: 250 ng siRNA with Transductin, 24 h (FIG. 11a); for knockdown of IL-8: poorly differentiated pig airway cultures, siRNA 250 ng, 24 h (FIG. 9a)
Experimental: as §1
as §2, with “cDNA. PCR efficiency for all reactions was within the acceptable margin of 90-110%. All the results of the samples were presented as remaining mRNA level in comparison to the mRNA level in the control samples (NC1), which was normalized to 100%.” for “cDNA.”

[4] = test system: SIN3A; assay: LY-294002 pretreatment of human airway cells before SIN3A siRNA transfection, qPCR; design: dose or concentration left out as unconfirmed; settings: siRNA with Transductin, 24 h, vs nontargeting control (FIG. 12a)
Experimental: (§4) For airway epithelia that were either well or poorly differentiated, transfection was done mostly according to the manufacturer's protocol. In all cases, the apical surface of epithelia was washed twice with PBS before adding the transfection mixture to the apical surface. The mixture was then left on the cells for 24 h for all transfection reagents. For PK1 cells, reverse transfection was performed in a 48-well plate by first adding the siRNA-RNAiMAX reagent mixture onto the plate and then adding the dispersed cells (40,000 cells) on top of the mixture and allowing the cells to adhere and establish growth for 24 h. […]
(§5) Total RNA was isolated using SV96 RNA isolation kit (Promega), according to manufacturer's protocol. […] One-fifteenth of the cDNA was then amplified and analyzed by Taqman assay in the 7900 Real Time PCR System (Applied Biosystems) using synthesized primer-probe pairs (IDT, Coralville, Iowa), reaction buffer and Immolase DNA polymerase (Bioline, Taunton, Mass.). […] Absolute quantification of an mRNA target sequence within an unknown sample was determined by reference to a standard curve. […]
(§6) Wortmannin was purchased from Sigma (St. Louis, Mo.) as a ready to use solution. […]

[5] = test system: CFTR; assay: LY-294002 pretreatment of human airway cells before CFTR siRNA transfection, qPCR; design: dose or concentration left out as unconfirmed; settings: siRNA with Transductin, 24 h, vs nontargeting control (FIG. 12b)
Experimental: as §4, §5, §6

[6] = test system: human airway epithelia; assay: Confocal imaging of DIG-labeled siRNA uptake in human airway epithelia; settings: cells transfected with DIG-siRNA, fluorescent images, species not stated (data not shown)
Experimental: The primary human airway epithelia grown at air-liquid interface were transfected with the DIG-labeled siRNA at a concentration of 250 ng/ml after complexing with Transductin. The transfection mixture was left on the apical surface for 2 h. At the end of this period, the cells were fixed in 2% formaldehyde, permeabilized in 0.2% Triton-x-100 and blocked in 1% BSA for 1 h. The cells were then stained with mouse antibody to DIG (Roche Biochemicals) for 1 h followed by either Alexa 488 labeled goat anti-mouse secondary antibody for 1 h followed by Alexa 488 labeled rabbit […] antibody (Invitrogen) for 1 or in some cases with Alexa 564 goat anti-mouse secondary antibody for 1 h. The cells were finally stained with nuclear stain, ToPro 3 for 10 minutes. The filter, containing the cells, was removed from the culture insert by cutting the edges with razor blade and then mounted onto a slide by the use of Vectashield. The slide was visualized by confocal microscopy.

[7] = test system: pig HPRT; assay: Dicer-substrate siRNA silencing in PK1 cells, qPCR of HPRT mRNA; settings: reverse transfection with RNAiMAX, 1 nM and 10 nM siRNA, 24 h, vs nontargeting control NC1
Experimental: as §4, §5
siRNAs were designed and synthesized to specifically target pig HPRT (ssHPRT) and IL-8 (IL-8 1098 and IL-8 1466). […] Quantitative real-time PCR was performed to measure the extent of mRNA reduction. […]

C=C1CC[C@H](O)C/C1=C/C=C1\CCC[C@]2(C)[C@@H]([C@H](C)/C=C/[C@H](C)C(C)C)CC[C@@H]12 [ergocalciferol]
reduction in HPRT mRNA levels ([1]; pig epithelia): no reduction | reduction in HPRT mRNA levels ([2]; human epithelia): no reduction

IL-8 1466: Dicer-substrate siRNA against pig IL-8, SEQ ID NO: 7 and 8 (chain 1 UGAGUGUAACUAUAGAACAUUUACA; chain 2 UGUAAAUGUUCUAUAGUUACACUCACA; chain 1: sugars from the 5' end r23 d2, 5' {P}, backbone not given here; chain 2: RNA, backbone not given here)
silencing of IL-8 ([3]; 2-day old pig airway epithelia): Silencing of IL-8 is seen | silencing of IL-8 ([3]; 5-day old pig airway epithelia): not in 5-day old epithelia | knockdown of IL-8 [3]: Knockdown of IL-8 is seen

IL-8 1098: Dicer-substrate siRNA against pig IL-8, SEQ ID NO: 5 and 6 (chain 1 GGCAAAUUGUUAAACGAACAGAATA; chain 2 UAUUCUGUUCGUUUAACAAUUUGCCAA; chain 1: sugars from the 5' end r23 d2, 5' {P}, backbone not given here; chain 2: RNA, backbone not given here)
silencing of IL-8 ([3]; 2-day old pig airway epithelia): Silencing of IL-8 is seen | silencing of IL-8 ([3]; 5-day old pig airway epithelia): not in 5-day old epithelia | knockdown of IL-8 [3]: Knockdown of IL-8 is seen

O=c1cc(N2CCOCC2)oc2c(-c3ccccc3)cccc12 [LY-294002, 2-morpholin-4-yl-8-phenylchromen-4-one]
reduction in mRNA levels of SIN3A [4]: 25% | range of silencing effects (inhibition) ([1]; pig airway cells, several donors (data not shown)): 10-20% | silencing of HPRT ([1]; pig epithelia, 10 μM for 6 h apically, vs nontargeting control (FIG. 5b)): about 20% | range of silencing effects (inhibition) ([2]; human airway cells, several donors (data not shown)): 10-55% | silencing of HPRT ([2]; human epithelia, 10 μM for 6 h apically, vs nontargeting control (FIG. 5a)): about 40% | reduction in mRNA levels of CFTR [5]: 20% | siRNA uptake [6]: improved siRNA uptake

O=C1CC[C@@]2(O)[C@H]3Cc4ccc(O)c5c4[C@@]2(CCN3CC2CC2)[C@H]1O5 [naltrexone]
reduction in HPRT mRNA levels ([1]; pig epithelia): no reduction | reduction in HPRT mRNA levels ([2]; human epithelia): no reduction

CCCC[C@@H](C=O)NC(=O)[C@H](CC(C)C)NC(=O)[C@H](CC(C)C)NC(C)=O [LLnL, N-Acetyl-L-Leucyl-L-Leucyl-L-Norleucinal] (Ac-Leu-Leu-[Nle]-aldehyde)
silencing of HPRT mRNA after pretreatment [1]: no effect on silencing

O=S(=O)(c1cccc2cnccc12)N1CCCNCC1 [fasudil]
reduction in HPRT mRNA levels ([1]; pig epithelia): no reduction | reduction in HPRT mRNA levels ([2]; human epithelia): no reduction

O=C(O)CN(CCOCCOCCN(CC(=O)O)CC(=O)O)CC(=O)O [EGTA]
silencing of HPRT mRNA after pretreatment [1]: did not result in silencing

CC(=O)O[C@H]1C(=O)[C@@]2(C)[C@H]([C@H](OC(=O)c3ccccc3)[C@]3(O)C[C@H](OC(=O)[C@H](O)[C@@H](NC(=O)c4ccccc4)c4ccccc4)C(C)=C1C3(C)C)[C@]1(OC(C)=O)CO[C@@H]1C[C@@H]2O [paclitaxel]
reduction in HPRT mRNA levels ([1]; pig epithelia): no reduction | reduction in HPRT mRNA levels ([2]; human epithelia): no reduction

COC[C@H]1OC(=O)c2coc3c2[C@@]1(C)C1=C(C3=O)[C@@H]2CCC(=O)[C@@]2(C)C[C@H]1OC(C)=O [wortmannin]
decrease in HPRT mRNA levels ([2]; human airway cells, 10 nM pretreatment): about 20% | decrease in HPRT mRNA levels ([2]; human airway cells, 40 nM pretreatment): ~30%

ssHPRT: Dicer-substrate siRNA against pig HPRT, SEQ ID NO: 1 and 2 (chain 1 CCAGUAAAGUUAUCACAUGUUCUAG; chain 2 CUAGAACAUGUGAUAACUUUACUGNGG; chemistry not fully specified)
decrease of targeting mRNA (HPRT) [7]: more than 90%
